Measurements published in the supplement of paper PMC4862054.

Tests used:
Conditions in all cases: 72 h
[1] = system: MCF-10A
Experimental: (§1)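 Drug sensitivity and resistance testing (DSRT) of breast cancer cell lines in 384-well plates, 5 concentrations in 10-fold dilutions over a compound-specific 10,000-fold range. After 72 h, cytotoxicity was read by CellTox Green fluorescence and viability by CellTiter-Glo luminescence (multiplexed), normalised to DMSO and benzethonium chloride controls. EC50 is the inflection point of the fitted dose-response curve (bottom asymptote free, so it can be relative for partial curves) and is censored at the highest tested concentration. Rows with DSS 0 (no meaningful response) were excluded.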

[2] = system: Hs578T
Experimental: as §1

[3] = system: MDA-MB-231
Experimental: as §1

[4] = system: CAL-85-1
Experimental: as §1

[5] = system: BT-549
Experimental: as §1

[6] = system: HDQ-P1
Experimental: as §1

[7] = system: MFM-223
Experimental: as §1

[8] = system: CAL-51
Experimental: as §1

[9] = system: MDA-MB-468
Experimental: as §1

[10] = system: HCC1599
In short: (§2)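 Breast cancer cell lines in 20 µl suspension were seeded onto 384-well plates that already held compound dissolved in 5 µl medium and were incubated for 72 h. Viability was measured by adding 2.5 µl CellTiter-Blue for 2 h at 37 °C and reading fluorescence at 560/590 nm. Each plate was normalised to vehicle and a positive kill control and checked by Z'-factor. EC50 was taken from a fitted percent-inhibition dose-response curve, censored at the highest concentration, and rows with a drug sensitivity score of zero were removed.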

[11] = system: HCC1143
In short: as §2

[12] = system: Hs578T; remark: listed apart in the source
In short: as §2

[13] = system: HCC1937
In short: as §2

[14] = system: MDA-MB-436
In short: as §2

[15] = system: CAL-120
In short: as §2

[16] = system: MDA-MB-231; remark: listed apart in the source
In short: as §2

[17] = system: SK-BR-3
In short: as §2

[18] = system: BT-549; remark: listed apart in the source
In short: as §2

[19] = system: MFM-223; remark: listed apart in the source
In short: as §2

[20] = system: BT-474
In short: as §2

[21] = system: MDA-MB-468; remark: listed apart in the source
In short: as §2

[22] = system: MDA-MB-453
In short: (§3)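 Breast cancer cell lines in 20 µl suspension were added to 384-well plates already holding compound at 5 concentrations, spaced in 10-fold steps across a compound-specific 10,000-fold range, and incubated for 72 h. CellTox Green fluorescence (485/520 nm) was read first to measure cell death, followed by CellTiter-Glo luminescence for viability after 10 min at room temperature. Each plate was normalised to 0.1 % DMSO and a positive kill control. EC50 values came from dose-response curve fits and were censored at the top concentration.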

[23] = system: MCF-10A; remark: listed apart in the source
In short: as §3

[24] = system: HCC1599; remark: listed apart in the source
In short: as §3

[25] = system: HCC1143; remark: listed apart in the source
In short: as §3

[26] = system: CAL-148
In short: as §3

[27] = system: Hs578T; remark: listed apart in the source
In short: as §3

[28] = system: HCC1937; remark: listed apart in the source
In short: as §3

[29] = system: MDA-MB-436; remark: listed apart in the source
In short: as §3

[30] = system: CAL-120; remark: listed apart in the source
In short: as §3

[31] = system: MDA-MB-231; remark: listed apart in the source
In short: as §3

[32] = system: DU-4475
In short: as §3

[33] = system: CAL-85-1; remark: listed apart in the source
In short: as §3

[34] = system: SK-BR-3; remark: listed apart in the source
In short: as §3

[35] = system: BT-549; remark: listed apart in the source
In short: as §3

[36] = system: MFM-223; remark: listed apart in the source
In short: as §3

[37] = system: CAL-51; remark: listed apart in the source
In short: as §3

[38] = system: MDA-MB-453; remark: listed apart in the source
In short: as §2

[39] = system: CAL-148; remark: listed apart in the source
In short: as §2

[40] = system: DU-4475; remark: listed apart in the source
In short: as §2

[41] = system: CAL-85-1; remark: listed apart in the source
In short: as §2

[42] = system: HDQ-P1; remark: listed apart in the source
In short: as §2

[43] = system: CAL-51; remark: listed apart in the source
In short: as §2

[44] = system: MDA-MB-436; remark: listed apart in the source
Experimental: as §1

[45] = system: CAL-120; remark: listed apart in the source
Experimental: as §1

[46] = system: DU-4475; remark: listed apart in the source
Experimental: as §1

## CC(C)(C)c1cnc(CSc2cnc(NC(=O)C3CCNCC3)s2)o1 [SNS-032]
[1]
  EC50, CellTox Green: 172 nM
[2]
  EC50, CellTox Green: 85.8 nM
[3]
  EC50, CellTox Green: 30.9 nM
[4]
  EC50, CellTox Green: 41.2 nM
[5]
  EC50, CellTox Green: 255 nM
[6]
  EC50, CellTox Green: 32.2 nM
[7]
  EC50, CellTox Green: 142 nM
[8]
  EC50, CellTox Green: 11.1 nM
[9]
  EC50, CellTox Green: 7580 nM
[10]
  EC50, CellTiter-Blue viability: 150 nM
[11]
  EC50, CellTiter-Blue viability: 206 nM
[12]
  EC50, CellTiter-Blue viability: 101 nM
[13]
  EC50, CellTiter-Blue viability: 79.7 nM
[14]
  EC50, CellTiter-Blue viability: 376 nM
[15]
  EC50, CellTiter-Blue viability: 160 nM
[16]
  EC50, CellTiter-Blue viability: 133 nM
[17]
  EC50, CellTiter-Blue viability: 123 nM
[18]
  EC50, CellTiter-Blue viability: 249 nM
[19]
  EC50, CellTiter-Blue viability: 169 nM
[20]
  EC50, CellTiter-Blue viability: 168 nM
[21]
  EC50, CellTiter-Blue viability: 353 nM
[22]
  EC50, CellTiter-Glo: 41.1 nM
[23]
  EC50, CellTiter-Glo: 157 nM
[24]
  EC50, CellTiter-Glo: 233 nM
[25]
  EC50, CellTiter-Glo: 46.5 nM
[26]
  EC50, CellTiter-Glo: 33.2 nM
[27]
  EC50, CellTiter-Glo: 101 nM
[28]
  EC50, CellTiter-Glo: 87.8 nM
[29]
  EC50, CellTiter-Glo: 46.8 nM
[30]
  EC50, CellTiter-Glo: 102 nM
[31]
  EC50, CellTiter-Glo: 54.1 nM
[32]
  EC50, CellTiter-Glo: 203 nM
[33]
  EC50, CellTiter-Glo: 62.8 nM
[34]
  EC50, CellTiter-Glo: 61.4 nM
[35]
  EC50, CellTiter-Glo: 41.9 nM
[36]
  EC50, CellTiter-Glo: 137 nM
[37]
  EC50, CellTiter-Glo: 17.1 nM
[38]
  EC50, CellTiter-Blue viability: 125 nM
[39]
  EC50, CellTiter-Blue viability: 128 nM
[40]
  EC50, CellTiter-Blue viability: 203 nM
[41]
  EC50, CellTiter-Blue viability: 128 nM
[42]
  EC50, CellTiter-Blue viability: 110 nM
[43]
  EC50, CellTiter-Blue viability: 571 nM

## Nc1ncn([C@@H]2O[C@H](CO)[C@@H](O)[C@H]2O)c(=O)n1 [Azacitidine]
[44]
  EC50, CellTox Green: > 10000 nM
[9]
  EC50, CellTox Green: 595 nM
[12]
  EC50, CellTiter-Blue viability: 6120 nM
[13]
  EC50, CellTiter-Blue viability: > 10000 nM
[14]
  EC50, CellTiter-Blue viability: 1060 nM
[15]
  EC50, CellTiter-Blue viability: > 10000 nM
[18]
  EC50, CellTiter-Blue viability: 2570 nM
[21]
  EC50, CellTiter-Blue viability: 650 nM
[24]
  EC50, CellTiter-Glo: 1290 nM
[29]
  EC50, CellTiter-Glo: 1120 nM
[35]
  EC50, CellTiter-Glo: 1280 nM

## COc1cc(F)c(F)c(Nc2ccc(I)cc2F)c1NS(=O)(=O)C1(C[C@H](O)CO)CC1 [Refametinib]
[45]
  EC50, CellTox Green: > 10000 nM
[3]
  EC50, CellTox Green: 23.2 nM
[46]
  EC50, CellTox Green: 110 nM
[4]
  EC50, CellTox Green: 788 nM
[9]
  EC50, CellTox Green: 2690 nM
[23]
  EC50, CellTiter-Glo: 6.98 nM
[25]
  EC50, CellTiter-Glo: 1620 nM
[26]
  EC50, CellTiter-Glo: 6680 nM
[27]
  EC50, CellTiter-Glo: 6150 nM
[28]
  EC50, CellTiter-Glo: 5050 nM
[29]
  EC50, CellTiter-Glo: 6630 nM
[30]
  EC50, CellTiter-Glo: 315 nM
[31]
  EC50, CellTiter-Glo: 429 nM
[32]
  EC50, CellTiter-Glo: 63.6 nM
[33]
  EC50, CellTiter-Glo: 840 nM
[35]
  EC50, CellTiter-Glo: 2210 nM
[36]
  EC50, CellTiter-Glo: 6030 nM

## COc1cc(F)c(F)c(Nc2ccc(I)cc2F)c1NS(=O)(=O)C1(C[C@H](O)CO)CC1 [RDEA119]
[11]
  EC50, CellTiter-Blue viability: 159 nM
[12]
  EC50, CellTiter-Blue viability: 81 nM
[13]
  EC50, CellTiter-Blue viability: 1310 nM
[15]
  EC50, CellTiter-Blue viability: 585 nM
[16]
  EC50, CellTiter-Blue viability: 21.3 nM
[19]
  EC50, CellTiter-Blue viability: 2870 nM
[21]
  EC50, CellTiter-Blue viability: 7180 nM
[38]
  EC50, CellTiter-Blue viability: 4260 nM
[40]
  EC50, CellTiter-Blue viability: 42.6 nM
[41]
  EC50, CellTiter-Blue viability: 557 nM
[42]
  EC50, CellTiter-Blue viability: 318 nM
[43]
  EC50, CellTiter-Blue viability: 196 nM

## C[C@]1(O)C[C@@H](c2nc(-c3ccc4ccc(-c5ccccc5)nc4c3)c3c(N)nccn32)C1 [Linsitinib]
[44]
  EC50, CellTox Green: 6000 nM
[3]
  EC50, CellTox Green: > 10000 nM
[22]
  EC50, CellTiter-Glo: 892 nM
[23]
  EC50, CellTiter-Glo: 645 nM
[24]
  EC50, CellTiter-Glo: 1940 nM
[25]
  EC50, CellTiter-Glo: > 10000 nM
[30]
  EC50, CellTiter-Glo: 8040 nM
[33]
  EC50, CellTiter-Glo: 3550 nM
[34]
  EC50, CellTiter-Glo: 1460 nM
